Measurements reported in patent US7425548B2, “Materials and methods for immune system stimulation” (Variety Chidren's Hospital, priority 2004, dated 2008).

Experiments:
iNOS = iNOS induction immunoassay; type: cell-based, human; details: cytoplasmic extract of cells treated with RR1
Procedure: Inducible Nitric Oxide Synthase (iNOS) induction and Nitric oxide (NO) synthesis. Higher and long lasting release of NO is caused by the enzyme iNOS upon stimulation with […]. The iNOS induction by RR1 stimulation was assayed by QUANTIKINE iNOS immunoassay kit (R&D systems, Minneapolis, Minn.) which employs a sandwich enzyme immunoassay technique. The iNOS was assayed from the cytoplasmic extract of the cells treated with different concentrations of RR1. The samples and standards were pipetted in to the wells of the 96-well plate and any iNOS present was bound to the immobilized antibody. After washing away the unbound substances, an enzyme linked monoclonal antibody specific for iNOS was added. After washing away the unbound antibody enzyme reagent, the color developing substrate solution was added, the color development was stopped by stop solution and the absorbance was read at 450 nm with a reference wave length of 570 nm in the Bio-Rad plate reader.

RAW264.7 macrophages = assay: Opsonized binding and phagocytosis of FITC-zymosan A bioparticles; type: cell-based, mouse; details: 500 μg/ml, 37° C., 1 hour
Procedure: Monocytes were incubated with RR1 at 37° C. for 1 hour followed by FITC-labeled zymosan A bioparticles for another 1 hour at 37° C. The cells were washed and intracellular fluorescence measured in a Coulter Elite Flow cytometer.
Opsonized binding and Phagocytosis. To determine the effect of RR1 and laminarin on opsonized binding and phagocytosis of zymosan A particles, RAW 264.7 cells were treated with RR1 or laminarin (0 and 500 μg/ml) in DMEM at 37° C. for 1 hour. This will ensure the release of opsonins and facilitate opsonic binding. The cells were washed with PBS twice and incubated with zymosan A-FITC bioparticles at a ratio of 25 particles/cell at 37° C. for 1 hour. The cells were suspended in PBS after removing the unbound zymosan particles by extensive washing with the medium, and the intracellular fluorescence analyzed in a Coulter Elite flow cytometer. The fluorescence intensity was expressed as percentage of control.

inhibitory effect on opsonized binding and phagocytosis of zymosan A bioparticles (RAW264.7 macrophages): failed to show any significant effect
inhibitory effect on opsonized binding and phagocytosis of zymosan A bioparticles (RAW264.7 macrophages; listed as RR-1): only little inhibitory effect
Substance: (1,4)-α-D-glucan [RR1]
induction of iNOS (iNOS): did not stimulate the induction of iNOS significantly
